Test results taken from PubChem BioAssay (NCI).
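Following 48 hours of exposure in 96-well plates, responses at five concentrations were used to interpolate endpoints linearly. At the GI50, growth is halved. TGI denotes the concentration required for complete inhibition of growth.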

Experiments:
Assay in all cases: NCI-60 cell line screen, 48 h
U251 CNS = test system: U251 CNS
SN12C renal = test system: SN12C renal
786-0 renal = test system: 786-0 renal
SF-295 CNS = test system: SF-295 CNS
SF-539 CNS = test system: SF-539 CNS
HL-60(TB) leukemia = test system: HL-60(TB) leukemia
UO-31 renal = test system: UO-31 renal
NCI/ADR-RES ovarian = test system: NCI/ADR-RES ovarian
HOP-62 NSCLC = test system: HOP-62 NSCLC
OVCAR-8 ovarian = test system: OVCAR-8 ovarian
OVCAR-3 ovarian = test system: OVCAR-3 ovarian
MCF7 breast = test system: MCF7 breast
HCC-2998 colon = test system: HCC-2998 colon
HCT-116 colon = test system: HCT-116 colon
M14 melanoma = test system: M14 melanoma
SK-OV-3 ovarian = test system: SK-OV-3 ovarian
SK-MEL-5 melanoma = test system: SK-MEL-5 melanoma
SNB-75 CNS = test system: SNB-75 CNS
CCRF-CEM leukemia = test system: CCRF-CEM leukemia
SK-MEL-28 melanoma = test system: SK-MEL-28 melanoma
KM12 colon = test system: KM12 colon
OVCAR-5 ovarian = test system: OVCAR-5 ovarian
BT-549 breast = test system: BT-549 breast
SK-MEL-2 melanoma = test system: SK-MEL-2 melanoma
MDA-MB-468 breast = test system: MDA-MB-468 breast
DU-145 prostate = test system: DU-145 prostate
COLO 205 colon = test system: COLO 205 colon
HCT-15 colon = test system: HCT-15 colon
MDA-MB-231 breast = test system: MDA-MB-231 breast
SNB-19 CNS = test system: SNB-19 CNS
SF-268 CNS = test system: SF-268 CNS
EKVX NSCLC = test system: EKVX NSCLC
HOP-92 NSCLC = test system: HOP-92 NSCLC
CAKI-1 renal = test system: CAKI-1 renal
A549 NSCLC = test system: A549 NSCLC
MOLT-4 leukemia = test system: MOLT-4 leukemia
K-562 leukemia = test system: K-562 leukemia
T-47D breast = test system: T-47D breast
NCI-H522 lung = test system: NCI-H522 lung
SR leukemia = test system: SR leukemia
UACC-62 melanoma = test system: UACC-62 melanoma
UACC-257 melanoma = test system: UACC-257 melanoma
NCI-H23 lung = test system: NCI-H23 lung
SW-620 colon = test system: SW-620 colon
A498 renal = test system: A498 renal
LOX IMVI melanoma = test system: LOX IMVI melanoma
HS 578T breast = test system: HS 578T breast
NCI-H460 lung = test system: NCI-H460 lung
HT29 colon = test system: HT29 colon
ACHN renal = test system: ACHN renal
MDA-MB-435 = test system: MDA-MB-435
MALME-3M melanoma = test system: MALME-3M melanoma
NCI-H226 lung = test system: NCI-H226 lung
RXF 393 renal = test system: RXF 393 renal
TK-10 renal = test system: TK-10 renal
PC-3 prostate = test system: PC-3 prostate
RPMI-8226 leukemia = test system: RPMI-8226 leukemia
OVCAR-4 ovarian = test system: OVCAR-4 ovarian
IGROV1 ovarian = test system: IGROV1 ovarian

## Clc1cccc(N/N=C/c2c[nH]c3ccccc23)n1
U251 CNS
  GI50: 10.7 µM
  TGI: 25.8 µM
SN12C renal
  GI50: 2.28 µM
  TGI: 11.7 µM
786-0 renal
  GI50: 11.1 µM
  TGI: 24.2 µM
SF-295 CNS
  GI50: 11.4 µM
  TGI: 23.5 µM
SF-539 CNS
  GI50: 1.47 µM
  TGI: 11.9 µM
HL-60(TB) leukemia
  GI50: 1.28 µM
  TGI: 13.9 µM
UO-31 renal
  GI50: 1.21 µM
  TGI: 14.1 µM
NCI/ADR-RES ovarian
  GI50: 2.98 µM
  TGI: 16.5 µM
HOP-62 NSCLC
  GI50: 10 µM
  TGI: 22.3 µM
OVCAR-8 ovarian
  GI50: 8.12 µM
  TGI: 21 µM
OVCAR-3 ovarian
  GI50: 3.85 µM
  TGI: 19.3 µM
MCF7 breast
  GI50: 2.67 µM
  TGI: 16.4 µM
HCC-2998 colon
  GI50: 12 µM
  TGI: 24.6 µM
HCT-116 colon
  GI50: 12.1 µM
  TGI: 25.2 µM
M14 melanoma
  GI50: 11.9 µM
  TGI: 25.4 µM
SK-OV-3 ovarian
  GI50: 2.39 µM
  TGI: 16.8 µM
SK-MEL-5 melanoma
  GI50: 8.61 µM
  TGI: 21 µM
SNB-75 CNS
  GI50: 0.141 µM
  TGI: 5 µM
CCRF-CEM leukemia
  GI50: 0.307 µM
  TGI: 19.4 µM
SK-MEL-28 melanoma
  GI50: 14.5 µM
  TGI: 27.6 µM
KM12 colon
  GI50: 9.78 µM
  TGI: 26.9 µM
OVCAR-5 ovarian
  GI50: 11 µM
  TGI: 23.7 µM
BT-549 breast
  GI50: 0.245 µM
  TGI: 11 µM
SK-MEL-2 melanoma
  GI50: 12.9 µM
  TGI: 25.9 µM
MDA-MB-468 breast
  GI50: 1.89 µM
  TGI: 5.01 µM
DU-145 prostate
  GI50: 13 µM
  TGI: 26 µM
COLO 205 colon
  GI50: 13.8 µM
  TGI: 28.8 µM
HCT-15 colon
  GI50: 8.1 µM
  TGI: 21.5 µM
MDA-MB-231 breast
  GI50: 1.37 µM
  TGI: 9.57 µM
SNB-19 CNS
  GI50: 12.7 µM
  TGI: 30.8 µM
SF-268 CNS
  GI50: 2.99 µM
  TGI: 25.9 µM
EKVX NSCLC
  GI50: 1.97 µM
  TGI: 16.8 µM
HOP-92 NSCLC
  GI50: 5.32 µM
  TGI: 20.7 µM
CAKI-1 renal
  GI50: 2.23 µM
  TGI: 19.1 µM
A549 NSCLC
  GI50: 13.2 µM
  TGI: 38.2 µM
MOLT-4 leukemia
  GI50: 1.55 µM
  TGI: 21.9 µM
K-562 leukemia
  GI50: 1.94 µM
  TGI: 41 µM
T-47D breast
  GI50: 4.04 µM
  TGI: 19 µM
NCI-H522 lung
  GI50: 1.03 µM
  TGI: 12.4 µM
SR leukemia
  GI50: 2.93 µM
  TGI: 19.3 µM
UACC-62 melanoma
  GI50: 10.3 µM
  TGI: 22 µM
UACC-257 melanoma
  GI50: 11.6 µM
  TGI: 24 µM
NCI-H23 lung
  GI50: 12.5 µM
  TGI: 26.3 µM
SW-620 colon
  GI50: 13.3 µM
  TGI: 28 µM
A498 renal
  GI50: 18.7 µM
  TGI: 34 µM
LOX IMVI melanoma
  GI50: 3.32 µM
  TGI: 17 µM
HS 578T breast
  GI50: 4.17 µM
  TGI: 27.8 µM
NCI-H460 lung
  GI50: 11.5 µM
  TGI: 28.8 µM
HT29 colon
  GI50: 15 µM
  TGI: 31.8 µM
ACHN renal
  GI50: 10.5 µM
  TGI: 33.6 µM
MDA-MB-435
  GI50: 2.46 µM
  TGI: 12 µM
MALME-3M melanoma
  GI50: 7.33 µM
  TGI: 20.8 µM
NCI-H226 lung
  GI50: 1.65 µM
  TGI: 17.2 µM
RXF 393 renal
  GI50: 2.84 µM
  TGI: 18.1 µM
TK-10 renal
  GI50: 19.5 µM
  TGI: 42.3 µM
PC-3 prostate
  GI50: 2.98 µM
  TGI: 26.6 µM
RPMI-8226 leukemia
  GI50: 0.83 µM
  TGI: 14.5 µM
OVCAR-4 ovarian
  GI50: 10.5 µM
  TGI: 29 µM
IGROV1 ovarian
  GI50: 1.37 µM
  TGI: 6.92 µM
